# Test results as given in article PMC2797259 (The Journal of Biological Chemistry, 2009).
# Biological target: T1, BacA (Bacillus subtilis, UniProt P39638)
# T1 sequence (P39638 1-204): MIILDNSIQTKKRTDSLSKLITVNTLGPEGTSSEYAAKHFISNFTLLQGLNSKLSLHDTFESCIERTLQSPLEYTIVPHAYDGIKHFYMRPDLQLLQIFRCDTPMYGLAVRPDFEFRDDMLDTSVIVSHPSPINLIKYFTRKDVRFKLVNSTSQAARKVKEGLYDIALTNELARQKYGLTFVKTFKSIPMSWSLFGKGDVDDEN
# Assay: HPLC, UV, 1H NMR and ESI-MS of products
# Assay type: biochemical
# Conditions: decarboxylation; Tris-HCl pH 8.1
structure (smiles),measurement,value
O=C(O)C(=O)CC1(C(=O)O)C=CC(O)C=C1 (stereo not shown) [prephenate],"HPLC, UV, 1H NMR and ESI-MS of products",prephenate is a substrate for BacA and not for BacB
